Data published in PubChem BioAssay (NCI).
Several values for one entry are separate records, joined by “and”; a condition that tells them apart may be missing. Identical values can stand only once.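 Exposure lasted 48 hours, with cells grown in 96-well plates and compounds tested at five concentrations. At the GI50, growth is halved. Definition used: TGI = concentration required for complete inhibition of growth.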

Tests used:
Test in all cases: growth of human tumour cells (NCI), 48 h
786-0 renal = system: 786-0 renal
A498 renal = system: A498 renal
A549 NSCLC = system: A549 NSCLC
ACHN renal = system: ACHN renal
BT-549 breast = system: BT-549 breast
CAKI-1 renal = system: CAKI-1 renal
CCRF-CEM leukemia = system: CCRF-CEM leukemia
COLO 205 colon = system: COLO 205 colon
DU-145 prostate = system: DU-145 prostate
EKVX NSCLC = system: EKVX NSCLC
HCC-2998 colon = system: HCC-2998 colon
HCT-116 colon = system: HCT-116 colon
HCT-15 colon = system: HCT-15 colon
HL-60(TB) leukemia = system: HL-60(TB) leukemia
HOP-62 NSCLC = system: HOP-62 NSCLC
HOP-92 NSCLC = system: HOP-92 NSCLC
HS 578T breast = system: HS 578T breast
HT29 colon = system: HT29 colon
IGROV1 ovarian = system: IGROV1 ovarian
K-562 leukemia = system: K-562 leukemia
KM12 colon = system: KM12 colon
LOX IMVI melanoma = system: LOX IMVI melanoma
M14 melanoma = system: M14 melanoma
MALME-3M melanoma = system: MALME-3M melanoma
MCF7 breast = system: MCF7 breast
MDA-MB-231 breast = system: MDA-MB-231 breast
MDA-MB-435 = system: MDA-MB-435
MDA-N = system: MDA-N
MOLT-4 leukemia = system: MOLT-4 leukemia
NCI-H226 lung = system: NCI-H226 lung
NCI-H23 lung = system: NCI-H23 lung
NCI-H460 lung = system: NCI-H460 lung
NCI-H522 lung = system: NCI-H522 lung
NCI/ADR-RES ovarian = system: NCI/ADR-RES ovarian
OVCAR-3 ovarian = system: OVCAR-3 ovarian
OVCAR-4 ovarian = system: OVCAR-4 ovarian
OVCAR-5 ovarian = system: OVCAR-5 ovarian
OVCAR-8 ovarian = system: OVCAR-8 ovarian
PC-3 prostate = system: PC-3 prostate
RPMI-8226 leukemia = system: RPMI-8226 leukemia
RXF 393 renal = system: RXF 393 renal
SF-268 CNS = system: SF-268 CNS
SF-295 CNS = system: SF-295 CNS
SF-539 CNS = system: SF-539 CNS
SK-MEL-2 melanoma = system: SK-MEL-2 melanoma
SK-MEL-28 melanoma = system: SK-MEL-28 melanoma
SK-MEL-5 melanoma = system: SK-MEL-5 melanoma
SK-OV-3 ovarian = system: SK-OV-3 ovarian
SN12C renal = system: SN12C renal
SNB-19 CNS = system: SNB-19 CNS
SNB-75 CNS = system: SNB-75 CNS
SR leukemia = system: SR leukemia
SW-620 colon = system: SW-620 colon
T-47D breast = system: T-47D breast
TK-10 renal = system: TK-10 renal
U251 CNS = system: U251 CNS
UACC-257 melanoma = system: UACC-257 melanoma
UACC-62 melanoma = system: UACC-62 melanoma
UO-31 renal = system: UO-31 renal

`CCN(CC)CCCNc1[nH]ncc2c(C)c3nc4ccccc4c3cc12` was tested, and the GI50 (786-0 renal) was 0.346 µM, the TGI (786-0 renal) was 1.58 µM and 4.57 µM and the TGI (A498 renal) was 4.73 µM. For the same molecule, the GI50 (A549 NSCLC) was 0.398 µM, the TGI (A549 NSCLC) was 2.94 µM and 14.2 µM and the TGI (ACHN renal) was 11.6 µM and 9.15 µM. For the same molecule, the GI50 (BT-549 breast) was 2.08 µM, the TGI (BT-549 breast) was 2.75 µM and 5.17 µM and the GI50 (CAKI-1 renal) was 4.07 µM. The TGI (CAKI-1 renal) was 18.1 µM and 17.7 µM, the GI50 (CCRF-CEM leukemia) was 0.132 µM and the GI50 (COLO 205 colon) was 0.49 µM. For the same molecule, the TGI (COLO 205 colon) was 1.75 µM and 3.23 µM, the GI50 (DU-145 prostate) was 0.555 µM and the TGI (DU-145 prostate) was 11.2 µM and 5.62 µM. The GI50 (EKVX NSCLC) was 0.887 µM, the TGI (EKVX NSCLC) was 3.44 µM and 8.38 µM and the GI50 (HCC-2998 colon) was 0.375 µM. For the same molecule, the TGI (HCC-2998 colon) was 2.12 µM and 3.06 µM, the GI50 (HCT-116 colon) was 0.412 µM and 0.421 µM and the TGI (HCT-116 colon) was 2.32 µM and 3.31 µM. For the same molecule, the GI50 (HCT-15 colon) was 6.54 µM, the TGI (HCT-15 colon) was 21.4 µM and 36.5 µM and the TGI (HL-60(TB) leukemia) was 1.89 µM. The GI50 (HOP-62 NSCLC) was 1.08 µM, the TGI (HOP-62 NSCLC) was 2.58 µM and 13.3 µM and the GI50 (HOP-92 NSCLC) was 0.613 µM. The TGI (HOP-92 NSCLC) was 3.63 µM and 5.8 µM, the GI50 (HS 578T breast) was 0.449 µM and the TGI (HS 578T breast) was 2.13 µM and 6.38 µM. The GI50 (HT29 colon) was 0.362 µM, the TGI (HT29 colon) was 1.71 µM and 2.83 µM and the GI50 (IGROV1 ovarian) was 1.08 µM. For the same molecule, the TGI (IGROV1 ovarian) was 8.16 µM and 6.88 µM, the GI50 (K-562 leukemia) was 0.347 µM and 0.372 µM and the TGI (K-562 leukemia) was 1.79 µM and 9.54 µM. For the same molecule, the GI50 (KM12 colon) was 0.355 µM, the TGI (KM12 colon) was 1.47 µM and 6.75 µM and the GI50 (LOX IMVI melanoma) was 0.328 µM. The TGI (LOX IMVI melanoma) was 1.58 µM and 1.18 µM, the GI50 (M14 melanoma) was 1.16 µM and the TGI (M14 melanoma) was 2.44 µM and 6.41 µM. The GI50 (MALME-3M melanoma) was 0.918 µM, the TGI (MALME-3M melanoma) was 2.34 µM and 3.81 µM and the GI50 (MCF7 breast) was 0.219 µM. For the same molecule, the TGI (MCF7 breast) was 0.756 µM and 5.9 µM, the GI50 (MDA-MB-231 breast) was 0.709 µM and the TGI (MDA-MB-231 breast) was 2.65 µM and 2.51 µM. The GI50 (MDA-MB-435) was 0.754 µM, the TGI (MDA-MB-435) was 2.12 µM and 4 µM and the GI50 (MDA-N) was 1.19 µM. For the same molecule, the TGI (MDA-N) was 2.39 µM and 3.99 µM, the GI50 (MOLT-4 leukemia) was 0.0288 µM and the TGI (MOLT-4 leukemia) was 0.183 µM and 0.0447 µM. The GI50 (NCI-H226 lung) was 0.566 µM, the TGI (NCI-H226 lung) was 2.5 µM and 2.09 µM and the GI50 (NCI-H23 lung) was 0.583 µM. For the same molecule, the TGI (NCI-H23 lung) was 1.99 µM and 3.72 µM, the GI50 (NCI-H460 lung) was 0.22 µM and the TGI (NCI-H460 lung) was 1.36 µM and 2.69 µM. The GI50 (NCI-H522 lung) was 0.217 µM, the TGI (NCI-H522 lung) was 1.15 µM and 1.14 µM and the GI50 (NCI/ADR-RES ovarian) was 56.1 µM. For the same molecule, the TGI (NCI/ADR-RES ovarian) was 200 µM, the GI50 (OVCAR-3 ovarian) was 0.589 µM and the TGI (OVCAR-3 ovarian) was 3.14 µM and 7.11 µM. The GI50 (OVCAR-4 ovarian) was 0.397 µM, the TGI (OVCAR-4 ovarian) was 1.75 µM and 2.42 µM and the GI50 (OVCAR-5 ovarian) was 0.774 µM. For the same molecule, the TGI (OVCAR-5 ovarian) was 6.81 µM and 16.6 µM, the GI50 (OVCAR-8 ovarian) was 0.926 µM and the TGI (OVCAR-8 ovarian) was 4.85 µM and 4.58 µM. For the same molecule, the GI50 (PC-3 prostate) was 0.498 µM, the TGI (PC-3 prostate) was 2.11 µM and 4.55 µM and the GI50 (RPMI-8226 leukemia) was 1.51 µM and 0.99 µM. The TGI (RPMI-8226 leukemia) was 4.92 µM and 5.62 µM, the GI50 (RXF 393 renal) was 0.878 µM and the TGI (RXF 393 renal) was 2.25 µM and 5.78 µM. The GI50 (SF-268 CNS) was 0.493 µM and 1.09 µM, the TGI (SF-268 CNS) was 3.16 µM and 7.67 µM and the GI50 (SF-295 CNS) was 1.3 µM. For the same molecule, the TGI (SF-295 CNS) was 5.27 µM and 11.8 µM, the GI50 (SF-539 CNS) was 0.373 µM and the TGI (SF-539 CNS) was 1.81 µM and 6.09 µM. The GI50 (SK-MEL-2 melanoma) was 1.59 µM, the TGI (SK-MEL-2 melanoma) was 3.11 µM and 7.17 µM and the GI50 (SK-MEL-28 melanoma) was 2.83 µM. The TGI (SK-MEL-28 melanoma) was 13.9 µM and 4.06 µM, the GI50 (SK-MEL-5 melanoma) was 1.41 µM and the TGI (SK-MEL-5 melanoma) was 2.78 µM and 5.05 µM. The GI50 (SK-OV-3 ovarian) was 1.31 µM, the TGI (SK-OV-3 ovarian) was 2.75 µM and 12.6 µM and the GI50 (SN12C renal) was 0.585 µM. The TGI (SN12C renal) was 3.87 µM and 3.6 µM, the GI50 (SNB-19 CNS) was 0.857 µM and the TGI (SNB-19 CNS) was 5.96 µM and 4.79 µM. The GI50 (SNB-75 CNS) was 0.64 µM, the TGI (SNB-75 CNS) was 1.99 µM and 5.3 µM and the TGI (SR leukemia) was 1.12 µM. The GI50 (SW-620 colon) was 0.319 µM and 0.529 µM, the TGI (SW-620 colon) was 2.92 µM and 6.98 µM and the GI50 (T-47D breast) was 1.01 µM. For the same molecule, the TGI (T-47D breast) was 17 µM and 20.2 µM, the GI50 (TK-10 renal) was 2.83 µM and the TGI (TK-10 renal) was 12.4 µM and 18.1 µM. The GI50 (U251 CNS) was 0.428 µM, the TGI (U251 CNS) was 1.71 µM and 3.57 µM and the GI50 (UACC-257 melanoma) was 1.4 µM. For the same molecule, the TGI (UACC-257 melanoma) was 7.05 µM and 6.14 µM, the TGI (UACC-62 melanoma) was 1.96 µM and 2.08 µM and the GI50 (UO-31 renal) was 3.71 µM. For the same molecule, the TGI (UO-31 renal) was 14.6 µM and 22 µM.
